Results on five compounds are retold here after US20250064724A1, “MODULAR FIELD-STABLE BIO-ARTIFICIAL BLOOD SUBSTITUTE” (VIRGINIA COMMONWEALTH UNIVERSITY, priority 2021, published 2025).

In data set [1] the test system is shocked rats. The experiment in a line: Example 3: PEG-20 k and delayed or nitric oxide modified HBOC in rodent lethal hemorrhagic shock. Type of data set: in vivo, rat. Conditions: Example 3, present tense. The method, then: Rats are bled to 35 mmHg and held there until lactate reaches 9-10 mM, at which time, LVR solutions are given to resuscitate them. Thirty minutes after resuscitation, another 10% blood volume is removed and the plasma component is immediately separated and given back. A loop of distal ileum is exposed and a 1 cm enterotomy is made along the anti-mesenteric border to access the mucosal surface for hourly recordings of capillary blood flow by Orthogonal Polarization Spectral Imaging (OPSI) and for biopsies of bowel mucosa at various times before. The biopsies are used for histological analysis and for nitric oxide metabolism studies ex-vivo in a tissue culture system.
The albumin solution is a control for both the protein and oncotic effects of the HBOC per se and for the delayed volume administration at 2 and 4 hours after the initial PEG-20 k resuscitation. The total volume infusions for these studies is maintained at 6.8 ml/kg to remain in the low volume range (10% estimated blood volume). All surgical preparations are sterile so any animals surviving after 5 hours from resuscitation can be recovered the next day. N=10 rats per group. […]
In both Part 1 and Part 2, the primary measured outcomes include the rate of oxygen debt repayment on the first operative day and the re-accumulation of new oxygen debt the following days in rats that survive the initial 5-hour intra-operative observation period. […] Other secondary outcomes measured in each experiment include MAP, blood labs, intestinal microcirculation measured with orthogonal polarization spectral imaging (OPSI) through a small enterotomy in the distal ileum, plasma Th1 cytokines, terminal bowel histology analysis, and subject survival time. Finally, local tissue production of nitric oxide, nitrosothiols, and nitric oxide metabolites is assessed from serial bowel mucosa biopsies using incubations of tissue in a Dubanoff metabolic incubator and a Sievers-Style chemiluminescence NO analyzer.

The subject of data set [2] is nitric oxide synthase (NOS). Conditions: cited from earlier work; for blockade of the L-Arginine effect in crystalloid resuscitation: competitive NOS inhibitors.
Data set [3] deals with anesthetized rats. As to conditions: 300 mg/kg L-Arginine with 6.8 ml/kg HBOC-201 IV, listed as L-Arg. The text has this:
This hypertension is believed due to the local scavenging of nitric oxide in the vessel wall. As the normal vasodilator tone produced by basal nitric oxide is removed by the HBOC hemoglobin, the vasoconstrictor tone now prevails and the blood pressure rises secondary to vasoconstriction of the resistance vessels.
Studies were designed to test how nitric oxide substrate loading before HBOC prevents or attenuates the NO scavenging effects of the HBOC on physiological, biochemical, and survival outcomes.

Data set [4] relates to anesthetized rats. As to conditions: literature reference (22); cited from earlier work.
For data set [5], the system named is shocked rats. The experiment in a line: Example 4: fibrinogen add back after PEG-20 k resuscitation, controlled and uncontrolled hemorrhage in rats. Type of data set: in vivo, rat. Conditions: fibrinogen after PEG-20 k IV solution, controlled or uncontrolled hemorrhagic shock. The method, then: Changes in coagulation and platelet function is measured in the controlled lethal shock model in adult anesthetized rats in groups that receive PEG-20 k IV solution alone and those that receive PEG-20 k IV solution and supplemental human fibrinogen (200 mg/kg, IV, in 300 μl LR). The control group also receives 300 ul LR without RiaSTAP®. Samples of whole rat blood (1.0-ml) are taken at baseline and at various times after resuscitation for thromboelastography (TEG) analysis of coagulation and platelet function. Other assays are done to measure fibrinogen levels, intrinsic and extrinsic coagulation pathway coagulation, and platelet mapping studies are conducted to answer some mechanistic questions about platelet function defects. Samples are collected out to 4 hours, which is the time when coagulation and platelet function begins to return to baseline levels after PEG-20 k resuscitation. Each group uses 10 adult Sprague-Dawley rats.
Coagulation and platelet function outcomes are tested by using a clinically relevant model of mixed polytrauma hemorrhagic shock that involves severe bleeding from both controllable and uncontrollable sources. Our lab has developed a rodent model of severe hemorrhagic shock where tail bleeding (controlled source) is combined with blood loss from an abdominal penetrating injury to the spleen (splenic laceration). […]

Data set [6] concerns platelet IIb/IIIa receptor. As to conditions: in vivo. The text has this:
The hypocoagulable state and functional hypofibrinogenemia that exists immediately after severe blood loss and PEG-20 k resuscitation is mitigated by the concurrent addition of reconstituted lyophilized human fibrinogen (RiaSTAP®). The effects of severe blood loss after hemorrhage leads to direct depletion of clotting factors including fibrinogen. Furthermore, resuscitation with PEG-20 k IV solution causes rapid and long acting volume expansion by the osmotic movement of isotonic fluid from the intracellular and interstitial spaces back into the intravascular space, which further dilutes fibrinogen concentrations. […] Together, these forces tend to dilute out plasma fibrinogen concentrations that likely contribute to both the transient hypocoagulable state and the functional hypofibrinogenemia seen after PEG-20 k resuscitation in severe blood loss. Therefore, it makes sense that a simple add back of fibrinogen to the system after PEG-20 k IV solution resuscitation will correct the defect and improve coagulation and platelet function. […]
Changes in coagulation and platelet function is measured in the controlled lethal shock model in adult anesthetized rats in groups that receive PEG-20 k IV solution alone and those that receive PEG-20 k IV solution and supplemental human fibrinogen (200 mg/kg, IV, in 300 μl LR). […]

For the compound `N=C(N)NCCC[C@@H](N)C(=O)O` (racemic) [D-Arginine], the “blockade of the L-Arginine effect with HBOC” value in data set [1] is recorded as “this effect is blocked”. The “blockade of the L-Arginine effect in crystalloid resuscitation” value in data set [2] is given as “blocked”.

`N=C(N)NCCC[C@H](N)C(=O)O` [L-Arginine]: the “effect of co-administered L-Arginine on the blood pressure response to HBOC” value in data set [3] is listed as “caused vasodilatation that caused the blood pressure to drop”. The “resuscitation outcome with L-Arginine before HBOC” value in data set [1] (after PEG-20 k) is “Improvements are seen”. For the same compound, the “crystalloid resuscitation outcome with L-Arginine” value in data set [2] (severe hemorrhagic shock, earlier work of the lab (20)) is “dramatically improved”.

As to `COC(=O)[C@@H](N)CCCNC(=N)N[N+](=O)[O-]` [L-NAME, L-Nitro Arginine Methyl Ester], the “blockade of the L-Arginine effect with HBOC” value in data set [1] is recorded as “this effect is blocked”. Further, the “reversal of the L-Arg blood pressure effect by nitric oxide synthetase inhibitor” value in data set [4] is “reversal”. Also, the “blockade of the L-Arginine effect in crystalloid resuscitation” value in data set [2] is on record as “blocked”.

As to fibrinogen, the “coagulation outcomes, bleeding times and volumes” value in data set [5] was “reduces bleeding”; in data set [5] (listed as concentrated fibrinogen) it was “significantly improves coagulation outcomes and decreases uncontrolled bleeding times and volumes”.

On to polyethylene glycol [PEG-20 k], for which, in data set [6], the “coagulopathy on TEG” value is recorded as “minor coagulopathy on TEG”; the “time when coagulation and platelet function begins to return to baseline levels” value is 4 h.
